From patent publication US8486885B2, “β-arrestin effectors and compositions and methods of use thereof” (Trevena, Inc., priority 2008, dated 2013)
Non-standard residues stand in square brackets, D forms with d. Residues, ends and D or L forms follow the SMILES beside them. Sar = CNCC(=O)O

Columns and labels:
Assay type in all cases: cell-based
[1] = biological target: human angiotensin 2 type 1 receptor (human AT1R) (Homo sapiens, UniProt P30556); test: PathHunter β-arrestin-2 recruitment assay, human AT1R; details: PathHunter β-arrestin HEK293 cells; for EC50: read-out: human AT1R b-arrestin2 EC50
Experimental: (§1) The proximal event in β-arrestin function mediated by GPCRs is recruitment to receptors following ligand binding and receptor phosphorylation by GRK's. Thus, the measure of β-arrestin recruitment was used to determine ligand efficacy for β-arrestin function.
(§2) B-arrestin-2 recruitment to the human and rat angiotensin 2 type 1 receptor (human AT1R and rat AT1aR, respectively) was measured with the PathHunter™ β-arrestin assay (DiscoveRx Corporation, Fremont Calif.). Cells, plasmid(s), and detection reagent(s) were purchased from DiscoveRx, and assays were performed per manufacturer's instructions. Human AT1R and rat AT1aR were cloned into the pCMV-ProLink vector, verified by sequencing, and transfected into PathHunter β-arrestin HEK293 cells. Stably transfected clonal cell lines were selected with Hygromycin and G418. These clonal cell lines were used for all experiments.
(§3) For assays, 25,000 cells were seeded per well in 96-well microplates in volumes of 90 μL and allowed to grow overnight at 37° C. in 5% CO2. Peptides of the invention were dissolved in deionized water to a concentration of 1 mM. Peptides were then further diluted in assay buffer (Hank's balanced salt solution with 20 mM HEPES) to add peptide to the cells to reach final concentrations ranging from 10 μM to 1 pM. Cells were then incubated for 60 minutes at 37° C. in 5% CO2, followed by addition of 50 μL of PathHunter Detection Reagent to each well. The microplates were then incubated at room temperature for 60 minutes, and then luminescence was measured using a NOVOstar microplate reader purchased from BMG Labtech. B-arrestin-2 recruitment to receptors was measured as relative luminescence intensity expressed in arbitrary units.
Target sequence in this assay (P32121 whole entry partner, one chain of several): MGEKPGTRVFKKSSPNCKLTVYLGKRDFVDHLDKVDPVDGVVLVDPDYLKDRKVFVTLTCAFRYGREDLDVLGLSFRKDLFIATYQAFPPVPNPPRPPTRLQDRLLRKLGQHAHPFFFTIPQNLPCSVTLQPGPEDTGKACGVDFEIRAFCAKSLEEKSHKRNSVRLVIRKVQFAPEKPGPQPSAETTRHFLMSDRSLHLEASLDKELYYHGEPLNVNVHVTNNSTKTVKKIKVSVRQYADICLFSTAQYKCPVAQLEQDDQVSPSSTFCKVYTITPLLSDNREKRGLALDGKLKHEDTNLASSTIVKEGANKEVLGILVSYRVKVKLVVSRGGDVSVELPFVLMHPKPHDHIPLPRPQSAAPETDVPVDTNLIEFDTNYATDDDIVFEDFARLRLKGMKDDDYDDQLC

[2] = biological target: T1, human angiotensin 2 type 1 receptor (human AT1R) (Homo sapiens, UniProt P30556); test: IP1 accumulation assay (IP-One Tb), human AT1R; details: cells expressing human AT1R
T1 construct: expressed in transfected cells
T1 sequence (P30556 1-359): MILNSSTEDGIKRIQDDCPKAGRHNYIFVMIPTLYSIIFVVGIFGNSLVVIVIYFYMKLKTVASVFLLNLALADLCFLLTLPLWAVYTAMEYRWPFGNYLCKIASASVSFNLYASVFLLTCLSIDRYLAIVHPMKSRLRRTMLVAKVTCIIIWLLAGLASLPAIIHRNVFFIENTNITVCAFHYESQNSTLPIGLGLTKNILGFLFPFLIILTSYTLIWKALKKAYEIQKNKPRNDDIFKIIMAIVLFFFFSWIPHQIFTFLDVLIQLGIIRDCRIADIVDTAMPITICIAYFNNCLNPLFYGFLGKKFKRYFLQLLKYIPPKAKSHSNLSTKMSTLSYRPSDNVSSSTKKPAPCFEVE
Experimental: (§4) A secondary measure of G protein coupling efficacy was also performed. IP3 is generated by activation of phospholipase C by Gα-q. IP3 is degraded to IP1, which can be forced to accumulate in cells by blocking degradation with lithium chloride. Thus we measured accumulation of IP1 to determine ligand efficacy for G protein activation.
(§5) IP1 accumulation generated by human and rat angiotensin 2 type 1 receptor (human AT1R and rat AT1aR, respectively) was measured with IP-One Tb kits purchased from Cisbio and used per the manufacturer's instructions. Clonal stably transfected cell lines expressing human AT1TR or rat AT1aR were used for all experiments.
(§6) For assays, 4,000 cells were seeded per well in 384-well small-volume microplates in volumes of 20 uL and allowed to grow overnight at 37° C. in 5% CO2. Cell growth media was then replaced with stimulation buffer supplied by Cisbio containing 50 mM lithium chloride. Peptides TRV-120,001 through TRV-120,035 were dissolved in deionized water to a concentration of 1 mM. For agonist detection, peptides were then further diluted in stimulation buffer to add peptide to the cells to reach final concentrations ranging from 10 uM to 1 pM. […] Following addition of peptides, cells were incubated at 37° C. in 5% CO2 for 30 minutes and then lysed with detection reagents added per manufacturer's instructions.

[3] = biological target: T2, rat angiotensin 2 type 1 receptor (rat AT1aR) (Rattus norvegicus, UniProt P25095); test: IP1 accumulation assay (IP-One Tb), rat AT1aR; details: cells expressing rat AT1aR
T2 construct: expressed in transfected cells
T2 sequence (P25095 1-359): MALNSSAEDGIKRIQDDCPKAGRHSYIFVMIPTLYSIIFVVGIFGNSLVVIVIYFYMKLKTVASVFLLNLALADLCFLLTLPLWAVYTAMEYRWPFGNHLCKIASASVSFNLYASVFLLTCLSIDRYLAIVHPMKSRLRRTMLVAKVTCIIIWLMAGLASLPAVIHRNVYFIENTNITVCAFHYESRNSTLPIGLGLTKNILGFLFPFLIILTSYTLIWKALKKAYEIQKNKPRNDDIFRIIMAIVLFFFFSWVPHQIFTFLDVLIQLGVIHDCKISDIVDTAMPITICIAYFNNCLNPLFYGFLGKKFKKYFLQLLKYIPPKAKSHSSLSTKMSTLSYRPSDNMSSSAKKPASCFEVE
Experimental: as §4, §5, §6

[4] = biological target: rat angiotensin 2 type 1 receptor (rat AT1aR) (Rattus norvegicus, UniProt P25095); test: PathHunter β-arrestin-2 recruitment assay, rat AT1aR; details: PathHunter β-arrestin HEK293 cells; for EC50: read-out: rat AT1aR b-arrestin2 EC50
Experimental: as §1, §2, §3
Target sequence in this assay (P32121 whole entry partner, one chain of several): as the sequence (P32121 whole entry partner, one chain of several) above

SMILES | human AT1R b-arrestin2 Max (%) [1] [%] | human AT1R IP One EC50 (M) [2] | rat AT1aR IP One EC50 (M) [3] | rat AT1aR b-arrestin2 Max (%) [4] [%] | EC50 [4] [nM] | EC50 [1] [nM] | EC50 [3] [nM] | rat AT1aR IP One Max (%) [3] [%]
CNCC(=O)N[C@@H](CCCNC(=N)N)C(=O)N[C@H](C(=O)N[C@@H](Cc1ccc(O)cc1)C(=O)N[C@@H](CCC(=O)O)C(=O)N[C@@H](Cc1c[nH]cn1)C(=O)N1CCC[C@H]1C(N)=O)C(C)C [SEQ ID NO:40, Sar-Arg-Val-Tyr-Glu-His-Pro-NH2] (H-[Sar]RVYEHP-NH2; N-terminus assumed) | 53.2 | inactive | Inactive | 87.9 | 31 |  |  | 
CNCC(=O)N[C@@H](CCCNC(=N)N)C(=O)N[C@H](C(=O)N[C@@H](Cc1ccc(O)cc1)C(=O)N[C@@H](Cc1ccccc1)C(=O)N[C@@H](Cc1c[nH]cn1)C(=O)N1CCC[C@H]1C(N)=O)C(C)C [SEQ ID NO:41, Sar-Arg-Val-Tyr-Phe-His-Pro-NH2] | 30.1 | inactive | Inactive | 53.1 |  | 1600 |  | 
CNCC(=O)N[C@@H](CCCNC(=N)N)C(=O)N[C@H](C(=O)N[C@@H](Cc1ccc(O)cc1)C(=O)N[C@@H](Cc1c[nH]cn1)C(=O)N[C@@H](Cc1c[nH]cn1)C(=O)N1CCC[C@H]1C(N)=O)C(C)C [SEQ ID NO:42, Sar-Arg-Val-Tyr-His-His-Pro-NH2] (H-[Sar]RVYHHP-NH2; N-terminus assumed) | 46.4 | inactive | Inactive | 74.9 | 270 | 630 |  | 
CNCC(=O)N[C@@H](CCCNC(=N)N)C(=O)N[C@H](C(=O)N[C@@H](Cc1ccc(O)cc1)C(=O)N[C@@H](CCCCN)C(=O)N[C@@H](Cc1c[nH]cn1)C(=O)N1CCC[C@H]1C(N)=O)C(C)C [SEQ ID NO:43, Sar-Arg-Val-Tyr-Lys-His-Pro-NH2] (H-[Sar]RVYKHP-NH2) | 42.7 | inactive |  | 64.8 |  |  | 260 | 17.9
CNCC(=O)N[C@@H](CCCNC(=N)N)C(=O)N[C@H](C(=O)N[C@@H](Cc1ccc(O)cc1)C(=O)N[C@@H](CCCNC(=N)N)C(=O)N[C@@H](Cc1c[nH]cn1)C(=O)N1CCC[C@H]1C(N)=O)C(C)C [SEQ ID NO:45, Sar-Arg-Val-Tyr-Arg-His-Pro-NH2] (H-[Sar]RVYRHP-NH2; N-terminus assumed) | 53.3 | inactive |  | 91.7 | 27 |  |  | 10.2
CC[C@H](C)[C@H](NC(=O)[C@H](Cc1ccc(O)cc1)NC(=O)[C@@H](NC(=O)[C@H](CCCNC(=N)N)NC(=O)[C@@H](C)NC)C(C)C)C(=O)N[C@@H](Cc1c[nH]cn1)C(=O)N1CCC[C@H]1C(=O)N[C@@H](C)C(=O)O [SEQ ID NO:47] | 80.5 |  | Inactive | 72.2 | 2100 |  |  | 
CC[C@H](C)[C@H](NC(=O)[C@H](Cc1ccccc1)NC(=O)[C@@H](NC(=O)[C@H](CCCNC(=N)N)NC(=O)CNC)C(C)C)C(=O)N[C@@H](Cc1c[nH]cn1)C(=O)N1CCC[C@H]1C(=O)N[C@H](C)C(=O)O [SEQ ID NO:48, Sar-Arg-Val-Phe-Ile-His-Pro-D-Ala-OH] | 48.1 | inactive |  | 42.1 |  |  | 200 | 13.9
CC[C@H](C)[C@H](NC(=O)[C@H](Cc1ccc(O)cc1)NC(=O)[C@@H](NC(=O)[C@H](CCCCN)NC(=O)CNC)C(C)C)C(=O)N[C@@H](Cc1c[nH]cn1)C(=O)N1CCC[C@H]1C(=O)N[C@H](C)C(=O)O [SEQ ID NO:49, Sar-Lys-Val-Tyr-Ile-His-Pro-D-Ala-OH] | 72.7 | inactive | Inactive | 52.9 | 630 | 1000 |  | 
